Data reported in patent US20080200454A1, “CARBON-LINKED TETRAHYDRO-PYRAZOLO-PYRIDINE MODULATORS OF CATHEPSIN S” (priority 2007, published 2008).
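Note: Baculovirus-expressed CatS in pH 5.0 sodium acetate buffer with DTT and NaCl, fluorescence read each minute over 20 min, inhibition derived from rate slope.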

These compounds were tested against Recombinant human cathepsin S (CatS) (Homo sapiens, UniProt P25774) (assay: Recombinant human cathepsin S (CatS) inhibition assay, fluorogenic substrate Z-Valine-Valine-Arginine-AMC). Settings: not given.
Sequence of Recombinant human cathepsin S (CatS) (P25774 115-331): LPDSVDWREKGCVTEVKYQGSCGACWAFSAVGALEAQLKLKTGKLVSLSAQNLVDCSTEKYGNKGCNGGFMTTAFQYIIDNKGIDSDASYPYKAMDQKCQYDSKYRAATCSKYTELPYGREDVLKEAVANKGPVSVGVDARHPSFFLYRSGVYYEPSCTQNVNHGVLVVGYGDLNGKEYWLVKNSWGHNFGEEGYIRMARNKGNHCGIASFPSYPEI
For `CC(C)(C)OC(=O)N1C[C@H]2C[C@@H]1CN2CCCn1nc(-c2ccc(Cl)c(C#Cc3ccc(CNCc4ccc(Cl)cc4)cc3)c2)c2c1CCN(S(C)(=O)=O)C2` [Example 492, 1,1-Dimethylethyl (1R,4R)-5-{3-[3-(4-chloro-3-{[4-({[(4-chlorophenyl)methyl]amino}methyl)phenyl]ethynyl}phenyl)-5-(methylsulfonyl)-4,5,6,7-tetrahydro-1H-pyrazolo[4,3-c]pyridin-1-yl]propyl}-2,5-diazabicyclo[2.2.1]heptane-2-carboxylate], the IC50 was 220 nM. Work on `CC(C)(C)OC(=O)N1CCc2ccc(C#Cc3cc(-c4nn(CC(O)CN5CCCCC5)c5c4CN(S(C)(=O)=O)CC5)ccc3Cl)cc2C1` (centres unmarked) [Example 371, 1,1-Dimethylethyl 7-({2-chloro-5-[1-(2-hydroxy-3-piperidin-1-ylpropyl)-5-(methylsulfonyl)-4,5,6,7-tetrahydro-1H-pyrazolo[4,3-c]pyridin-3-yl]phenyl}ethynyl)-3,4-dihydroisoquinoline-2(1H)-carboxylate] yielded an IC50 of 380 nM. With `CS(=O)(=O)N1CCc2c(c(-c3ccc(Cl)c(C#Cc4ccc5c(c4)CC(CO)NC5)c3)nn2CCCN2CCOCC2)C1` (centres unmarked) [Example 206, [6-({2-Chloro-5-[5-(methylsulfonyl)-1-(3-morpholin-4-ylpropyl)-4,5,6,7-tetrahydro-1H-pyrazolo[4,3-c]pyridin-3-yl]phenyl}ethynyl)-1,2,3,4-tetrahydroisoquinolin-3-yl]methanol] the IC50 was 210 nM. With `CN1CCN(CCCCc2cc(-c3nn(CCCN4CCC(N5CCCC5=O)CC4)c4c3CN(S(C)(=O)=O)CC4)ccc2Cl)CC1` [Example 112, 1-{1-[3-(3-{4-Chloro-3-[4-(4-methyl-piperazin-1-yl)-butyl]-phenyl}-5-methanesulfonyl-4,5,6,7-tetrahydro-pyrazolo[4,3-c]pyridin-1-yl)-propyl]-piperidin-4-yl}-pyrrolidin-2-one] the IC50 was 4920 nM. `NC(=O)N1CCc2c(c(-c3ccc(Cl)c(C#Cc4ccc(C(=O)NCc5ccc(Cl)cc5)cc4)c3)nn2CCCN2CCSCC2)C1` [Example 547, 3-(4-Chloro-3-{[4-({[(4-chlorophenyl)methyl]amino}carbonyl)phenyl]ethynyl}phenyl)-1-(3-thiomorpholin-4-ylpropyl)-1,4,6,7-tetrahydro-5H-pyrazolo[4,3-c]pyridine-5-carboxamide] gave an IC50 of 120 nM. `C[C@H]1COCCN1CCCn1nc(-c2ccc(Cl)c(C#Cc3ccc(CNCc4ccc(Cl)cc4)cc3)c2)c2c1CCN(C(=O)C(N)=O)C2` [Example 158, 2-[3-(4-Chloro-3-{[4-({[(4-chlorophenyl)methyl]amino}methyl)phenyl]ethynyl}phenyl)-1-{3-[(3S)-3-methylmorpholin-4-yl]propyl}-1,4,6,7-tetrahydro-5H-pyrazolo[4,3-c]pyridin-5-yl]-2-oxoacetamide] gave an IC50 of 50 nM. `C[C@H]1COCCN1CCCn1nc(-c2ccc(Cl)c(C#Cc3ccc4c(c3)CN(C3CC3)CC4)c2)c2c1CCNC2` [Example 481, 7-{[2-Chloro-5-(1-{3-[(3S)-3-methylmorpholin-4-yl]propyl}-4,5,6,7-tetrahydro-1H-pyrazolo[4,3-c]pyridin-3-yl)phenyl]ethynyl}-2-cyclopropyl-1,2,3,4-tetrahydroisoquinoline] showed an IC50 of 3520 nM. For `CS(=O)(=O)N1CCc2c(c(-c3ccc(Cl)c(C#Cc4ccc(CNCc5ccc(Cl)cc5)cc4)c3)nn2CCCN2CCN(c3cccc(O)c3)CC2)C1` [Example 409, 3-(4-{3-[3-(4-Chloro-3-{[4-({[(4-chlorophenyl)methyl]amino}methyl)phenyl]ethynyl}phenyl)-5-(methylsulfonyl)-4,5,6,7-tetrahydro-1H-pyrazolo[4,3-c]pyridin-1-yl]propyl}piperazin-1-yl)phenol], the IC50 was 20 nM.

Same assay, conditions: CatS IC50
In the case of `Cc1cc(CNCc2ccc(C#Cc3cc(-c4nn(CCCN5CCOCC5)c5c4CN(S(C)(=O)=O)CC5)ccc3Cl)cc2)c(C(F)(F)F)o1` [Example 426, 1-[4-({2-Chloro-5-[5-(methylsulfonyl)-1-(3-morpholin-4-ylpropyl)-4,5,6,7-tetrahydro-1H-pyrazolo[4,3-c]pyridin-3-yl]phenyl}ethynyl)phenyl]-N-{[5-methyl-2-(trifluoromethyl)furan-3-yl]methyl}methanamine], the IC50 is reported as 390 nM. `C[C@H]1COCCN1CCCn1nc(-c2ccc(Cl)c(C#Cc3ccc4c(c3)CCN(C3CC3)C4)c2)c2c1CCN(S(C)(=O)=O)C2` [Example 512, 6-({2-Chloro-5-[1-{3-[(3S)-3-methylmorpholin-4-yl]propyl}-5-(methylsulfonyl)-4,5,6,7-tetrahydro-1H-pyrazolo[4,3-c]pyridin-3-yl]phenyl}ethynyl)-2-cyclopropyl-1,2,3,4-tetrahydroisoquinoline] gave an IC50 of 220 nM. Compound `C[C@H]1COCCN1CCCn1nc(-c2ccc(Cl)c(C#Cc3ccc(CN(C)Cc4ccc(Cl)cc4)cc3)c2)c2c1CCN(S(C)(=O)=O)C2` [Example 500, 1-[4-({2-Chloro-5-[1-{3-[(3S)-3-methylmorpholin-4-yl]propyl}-5-(methylsulfonyl)-4,5,6,7-tetrahydro-1H-pyrazolo[4,3-c]pyridin-3-yl]phenyl}ethynyl)phenyl]-N-[(4-chlorophenyl)methyl]-N-methylmethanamine] has an IC50 of 580 nM. `CC(C)CN1CCc2cc(C#Cc3cc(-c4nn(CCCN5CCOCC5)c5c4CN(S(C)(=O)=O)CC5)ccc3Cl)ccc2C1` [Example 523, 6-({2-Chloro-5-[5-(methylsulfonyl)-1-(3-morpholin-4-ylpropyl)-4,5,6,7-tetrahydro-1H-pyrazolo[4,3-c]pyridin-3-yl]phenyl}ethynyl)-2-(2-methylpropyl)-1,2,3,4-tetrahydroisoquinoline] gave an IC50 of 530 nM. With `CS(=O)(=O)N1CCc2c(c(-c3ccc(Cl)c(C#Cc4ccc(Cl)c(CNC5CC5)c4)c3)nn2CCCN2CCCCC2)C1` [Example 603, N-[2-Chloro-5-({2-chloro-5-[5-(methylsulfonyl)-1-(3-piperidin-1-ylpropyl)-4,5,6,7-tetrahydro-1H-pyrazolo[4,3-c]pyridin-3-yl]phenyl}ethynyl)benzyl]cyclopropanamine] the IC50 was 50 nM. Compound `CS(=O)(=O)N1CCc2c(c(-c3ccc(Cl)c(C#Cc4cncc(CNCc5ccc(Cl)cc5)c4)c3)nn2CCCN2CCOCC2)C1` [Example 428, 1-[5-({2-Chloro-5-[5-(methylsulfonyl)-1-(3-morpholin-4-ylpropyl)-4,5,6,7-tetrahydro-1H-pyrazolo[4,3-c]pyridin-3-yl]phenyl}ethynyl)pyridin-3-yl]-N-[(4-chlorophenyl)methyl]methanamine] has an IC50 of 3750 nM. Compound `CS(=O)(=O)N1CCc2c(c(-c3ccc(Cl)c(C#Cc4ccc(CNCC(F)(F)F)cc4)c3)nn2CCCN2CCN(c3ccccc3)CC2)C1` [Example 480, N-({4-[(2-Chloro-5-{5-(methylsulfonyl)-1-[3-(4-phenylpiperazin-1-yl)propyl]-4,5,6,7-tetrahydro-1H-pyrazolo[4,3-c]pyridin-3-yl}phenyl)ethynyl]phenyl}methyl)-2,2,2-trifluoroethanamine] has an IC50 of 100 nM. `C[C@H]1COCCN1CCCn1nc(-c2ccc(Cl)c(C#Cc3ccc(Cl)c(CN(C)C)c3)c2)c2c1CCN(C(=O)C(N)=O)C2` [Example 616, 2-(3-[4-Chloro-3-({4-chloro-3-[(dimethylamino)methyl]phenyl}ethynyl)phenyl]-1-{3-[(3S)-3-methylmorpholin-4-yl]propyl}-1,4,6,7-tetrahydro-5H-pyrazolo[4,3-c]pyridin-5-yl)-2-oxoacetamide] showed an IC50 of 12 nM. For `CS(=O)(=O)N1CCc2c(c(-c3ccc(Cl)c(C#Cc4ccc(CNCc5ccccn5)cc4)c3)nn2CCCN2CCOCC2)C1` [Example 408, 1-[4-({2-Chloro-5-[5-(methylsulfonyl)-1-(3-morpholin-4-ylpropyl)-4,5,6,7-tetrahydro-1H-pyrazolo[4,3-c]pyridin-3-yl]phenyl}ethynyl)phenyl]-N-(pyridin-2-ylmethyl)methanamine], the IC50 was 280 nM. In the case of `CS(=O)(=O)N1CCc2c(c(-c3ccc(Cl)c(C#Cc4cccc(CNCc5ccc(Cl)cc5)c4)c3)nn2CCCN2CCN(c3ccccn3)CC2)C1` [Example 447, 1-{3-[(2-Chloro-5-{5-(methylsulfonyl)-1-[3-(4-pyridin-2-ylpiperazin-1-yl)propyl]-4,5,6,7-tetrahydro-1H-pyrazolo[4,3-c]pyridin-3-yl}phenyl)ethynyl]phenyl}-N-[(4-chlorophenyl)methyl]methanamine], the IC50 is reported as 70 nM. For `CS(=O)(=O)N1CCc2c(c(-c3ccc(Cl)c(C#Cc4ccc(CNC5CCC5)cc4)c3)nn2CCCN2CCOCC2)C1` [Example 324, N-{[4-({2-Chloro-5-[5-(methylsulfonyl)-1-(3-morpholin-4-ylpropyl)-4,5,6,7-tetrahydro-1H-pyrazolo[4,3-c]pyridin-3-yl]phenyl}ethynyl)phenyl]methyl}cyclobutanamine], the IC50 was 1340 nM. `NC(=O)N1CCc2c(c(-c3ccc(Cl)c(C#Cc4ccc(Cl)c(C(=O)NCCN5CCOCC5)c4)c3)nn2CCCN2CCCCC2)C1` [Example 590, 3-[4-Chloro-3-({4-chloro-3-[(2-morpholin-4-ylethyl)carbamoyl]phenyl}ethynyl)phenyl]-1-(3-piperidin-1-ylpropyl)-1,4,6,7-tetrahydro-5H-pyrazolo[4,3-c]pyridine-5-carboxamide] showed an IC50 of 70 nM. With `CS(=O)(=O)N1CCc2c(c(-c3ccc(Cl)c(C#Cc4ccc5c(c4)CCNCC5)c3)nn2CCCN2CCOCC2)C1` [Example 375, 7-({2-Chloro-5-[5-(methylsulfonyl)-1-(3-morpholin-4-ylpropyl)-4,5,6,7-tetrahydro-1H-pyrazolo[4,3-c]pyridin-3-yl]phenyl}ethynyl)-2,3,4,5-tetrahydro-1H-3-benzazepine] the IC50 was 410 nM. `COc1ccccc1CNCc1ccc(C#Cc2cc(-c3nn(CCCN4CCSCC4)c4c3CN(C(N)=O)CC4)ccc2Cl)cc1` [Example 533, 3-[4-Chloro-3-({4-[({[2-(methyloxy)phenyl]methyl}amino)methyl]phenyl}ethynyl)phenyl]-1-(3-thiomorpholin-4-ylpropyl)-1,4,6,7-tetrahydro-5H-pyrazolo[4,3-c]pyridine-5-carboxamide] showed an IC50 of 100 nM.

Same assay, conditions: CatS IC50, Table 2; average of results obtained
Compound `CCCCC#Cc1cc(-c2nn(CCCN3CCOCC3)c3c2CN(S(C)(=O)=O)CC3)ccc1Cl` [Example 47, 3-(4-Chloro-3-hex-1-ynyl-phenyl)-5-methanesulfonyl-1-(3-morpholin-4-yl-propyl)-4,5,6,7-tetrahydro-1H-pyrazolo[4,3-c]pyridine] has an IC50 of 10600 nM.
